Test [1] concerns HeLa cells. The test can be described thus: Flow cytometry (FACS) DNA content / cell cycle profile. It is filed as cell-based, human. The following applies: 24 h. The protocol: Adherent HeLa cells were routinely passaged and maintained in D-MEM medium supplemented with 10% Fetal Bovine Serum (FBS), 1% Penicillin/Streptomycin and 2 mM L-Glutamine. The cells were cultured at 37 °C; 5% CO2. hTERT-RPE1 cells were grown in DMEM with 10% fetal bovine serum. HeLa cells constitutively expressing green fluorescent protein-conjugated Histone H2B and mRed fluorescent protein-conjugated α-tubulin were maintained in D-MEM medium supplemented with 10% Fetal Bovine Serum (FBS), 1% Penicillin/Streptomycin, 2 mM L-Glutamine and 0.5 µg/mL Puromycin and cultured at 37 °C; 5% CO2.
After treatment, FACS analysis was performed on a BD FACSCanto™ Flow Cytometer (Cat.No. 335860 BD Biosciences) using FACSDiva Software. Cells were trypsinized, washed wish PBS and fixed overnight in EtOH (-20°C). After washing with PBS, cells were stained with a propidium iodide solution (PI; 15 µg/mL)/ RNase A (30 µg/mL) for 30 min at 37 °C. RNase was added to avoid signals caused by the binding of PI to RNA.
We first examined by flow cytometry the cell cycle profiles of HeLa cells incubated in medium containing increasing concentrations of any of (A) or (C) for 24 h.

The test system of a further test is hTERT-RPE1 cells. The test can be described thus: Cilia disassembly assay. Conditions: pretreatment 1-2 µM, serum stimulation after 48 h starvation. It is filed as cell-based. As to the method: Cilia assembly and disassembly assays were performed as described in Pugacheva et al., Cell 2007, 129, 1351-1363. […] For analysis of cilia disassembly, cilia were assembled by 48 h starvation in Opti-MEM, and disassembled by incubation in DMEM-10% serum. Cells were fixed after 2 and 4 h. […] To visualize the centrosomes and the cilia, fixed cells were immunostained with anti-γ-tubulin (Sigma GTU88) and anti-acetylated-tubulin (Sigma), and DNA was stained with Hoechst.

The subject of test [2] is H2B-GFP/mRFP-αTubulin HeLa cells. The test can be described thus: Time-lapse video microscopy of live cells. The following applies: 2 µM. Type of test: cell-based, human. The protocol:
Upon treatment, living cells were added to a humidified chamber at 37 °C with 5% CO2 attached to a Carl Zeiss microscope (SN:3834000366) equipped with a Hamamatsu EM-CCD digital camera, controlled by AxioVision 4.6 software. Cells were imaged every 3 or 4.5 min (depending on the number of fields filmed) for over 16 h-24 h. Images were taken with the AxioCam MRm 426205 objective and processed using AxioVision software.
The increase in the proportion of cells with more than 2n DNA content could be due to several causes: several cycles of DNA replication or cytokinesis errors as shown for cells treated with other Aurora inhibitors. To determine the primary cause for the phenotype produced by (C) and examine whether (A) may interfere with mitosis, we examined live cells by time-lapse video microscopy. To visualize DNA and microtubules we used a HeLa stable cell line expressing H2B-GFP and mRFP-αTubulin. […] The resulting time-lapse images were used to determine the following parameters: (1) the percentage of cell death among non dividing cells (Figure 4A), (2) the percentage of cells entering mitosis (Figure 4B), (3) the outcome of mitosis: normal division (cell division), return to interphase without chromatin segregation and without dividing (no division), cytokinesis failure (division errors), cell death without resolving mitosis (cell death) (Figure 4C), and (4) the length of time spent in mitosis (TIM), defined as the interval between DNA condensation and anaphase resolution (Figure 4D).

For test [3], the system named is HeLa cells. The test can be described thus: Fixed cell analysis of mitotic phenotypes (fluorescence / immunofluorescence). It is filed as cell-based, human. The following applies: 2 µM, 24 h. As to the method:
For fixed cell analysis, HeLa or H2B-GFP/mRFP-αTubulin HeLa cells were grown on glass coverslips and treated as described above. Cells were fixed in ice cold methanol and mounted in Mowiol. Alternatively, non fluorescent HeLa were treated and subjected to immunofluorescence with anti-tubulin antibodies (Sigma, DM1A) and Hoechst to stain the DNA. Cells were observed on a Leica DM16000B microscope with the HCX PL APO CS 63x 1.4 objective. Images were taken with a Leica DFC 350FX camera, controlled by Leica Application Suit (LAS-AF 6000) software and processed with Adobe Photoshop.
To get a better idea about the defects causing cell division failure in cells treated with (C), we examined fixed cells to better visualize the chromosomes and the microtubules. […] In parallel, standard HeLa cells were treated in the same way. The cells were fixed and processed for immunofluorescence with anti-tubulin antibodies to visualize the microtubules and Hoechst to stain the DNA.

The test system of test [4] is histone H3 phosphorylation on Ser 10. The test can be described thus: Western Blot analysis of histone H3 phosphorylation in mitotic cells. It is filed as cell-based, human. Conditions: mitotic HeLa cells synchronized with nocodazole, treated 20 h, any of the concentrations tested. As to the method: For Western Blot analysis of HH3 phosphorylation levels in mitosis HeLa cells were arrested with 2 mM thymidine for 18 h, released into fresh medium for 6 h, and blocked with 2 µM nocodazole for 16 h. DMSO or the different compounds were added 1 h after thymidine release. Mitotic cells were shaken off and lysed in 50 mM Tris pH 6,8- 2% SDS. Samples were sonicated and boiled. 30 µg protein extract (as determined by Bradford assay, Bio-Rad protein assay) was loaded on SDS-PAGE, transferred to a nitrocellulose membrane and blotted with anti-phospho HH3 (Upstate), anti-Aurora A and anti-tubulin antibodies (Sigma, DM1A).
(A western blot detects proteins with antibodies after separation by electrophoresis.)

For `COc1cc2c(Nc3ccc(NC(=O)c4ccccc4)cc3)ncnc2cc1OCCCN1CCOCC1` [ZM1, reference compound], in the test on HeLa cells [1] (2µM, HeLa cells), the “% of cells 2<n<4” value is 2.8%, the “% of cells 2n” value turned out to be 1.2%, the “% of cells 4n” value is on record as 51.1% and the “% of cells <2n” value stood at 3.0%. Moreover, the “% of cells >4n” value with HeLa cells [1] (2µM, HeLa cells) is recorded as 43.5%. The “effect on DNA content / distribution of cells in the cell cycle stages” value in the test on HeLa cells [1] (ZM1 2 µM, (A) and (C) increasing concentrations) is “increased the proportion of cells with 4n and 8n DNA content”. In addition, the cilia disassembly result in the test on hTERT-RPE1 cells is “did not have any effect”. Moreover, the “time spent in mitosis (TIM)” value in test [2] amounted to 306 min. In addition, the “number of cells entering mitosis” value in test [2] (16 h-24 h) is “decreased by half”. Moreover, in test [2] (of cells in mitosis), the “cells that de-condensed their DNA and went back to interphase without chromosome segregation” value is reported as 76%. In addition, the “mitotic phenotype of fixed cells” value in the test with HeLa cells [3] was “strong increase of the number of mitotic cells showing chromosome alignment defects in metaphase”. The HH3-Ser10 phosphorylation entry in test [4] is recorded as “strongly reduced”.

(Values after EP2241565A1, “Aurora kinase inhibitors compounds” (Universität Leipzig, priority 2009, dated 2010).)
